{"source": "patent US8802929B2", "about": "“MIR164 gene that controls plant root system development and fertility and use thereof” (Huazhong Agricultural University, priority 2009, dated 2014)", "key": {"rice root system": {"tested_on": "rice root system", "assay": "Root system phenotype of transgenic plants overexpressing miR164 on 1/2 MS medium", "assay_type": "in vivo", "conditions": "overexpression under ubiquitin promoter; 10 days on 1/2 MS basal media; FIG. 5", "procedure": "In this example, transgenic plants overexpressing miR164 (FIG. 4) and wild-type plants were grown in ½ MS medium and observed for their phenotypes. The procedure was carried out as follows, Rice seeds from transgenic lines overexpressing miR164 were husked and disinfected (75% alcohol treatment for 3 minutes followed by 0.15% HgCl2 treatment for 30 minutes, and rinsed with sterile water for several times), and then allowed to germinate on the ½ MS basal media containing 50 mg/L hygromycin. One day later, the rice seeds from wild-type control lines were placed on the ½ MS basal media without hygromycin and allowed to germinate. Two to three days later, well germinated and consistently grown seeds were transferred to ½ MS basal media and cultivated in an illumination incubator (which simulated natural growth condition of 14-hour light and 10-hour darkness) for 10 days for phenotype observation. More than 30 plants were selected for each of the transgenic and wild-type plant lines, and each experiment was run in triplicate."}, "rice pollens": {"tested_on": "rice pollens", "assay": "Fertility phenotype of transgenic plants overexpressing miR164 (iodine staining of pollens)", "assay_type": "in vivo", "conditions": "overexpression under ubiquitin promoter; FIG. 6", "description": "This abnormality made the glumes unable to open such that the filaments, although elongated, could not extend out of the glumes (FIG. 6B). […] Moreover, the ovaries of most of the transgenic plants overexpressing miR164 stopped growing or even died (FIG. 6C to 6E). The development of anthers in the transgenic plants overexpressing miR164 was abnormal. […] The pollens of the transgenic plants overexpressing miR164 were not in the normal globular shape, but were shrunken (FIG. 6F to 6K). […] The sterility of the transgenic plants overexpressing miR164 could be utilized to conveniently breed a rice sterile line for hybrid rice breeding."}, "[1]": {"tested_on": "transgenic plants overexpressing miR164", "assay": "Restoration of fertility of transgenic plants overexpressing miR164 by external application of hormones", "assay_type": "in vivo, rice", "conditions": "two T0 transgenic plants; four phytohormones (IAA, NAA, KT, 6-BA) applied continually from tillering stage to grain filling stage; FIG. 7", "description": "Two T0 transgenic plants overexpressing miR164 were continually subjected to external application of four phytohormones, indoleacetic acid (IAA), naphthaleneacetic acid (NAA), kinetin (KT), and 6-benzylaminopurine (6-BA) from tillering stage to grain filling stage, and compared with the transgenic plants overexpressing miR164 grown normally. […] That the fertility of transgenic rice plants overexpressing miR164 could be restored by external application of hormones can be taken advantage of to conveniently use a transgenic rice plant to breed a sterile line (without application of hormones) or a maintainer line (by external application of hormones to allow the sterile line to produce seeds and to be reproduced; however the next generation is still sterile without externally applied hormones), thereby achieving “the double usage of a single line” for the breeding of hybrid rice."}, "miR164": {"tested_on": "miR164", "assay": "Expression level of mature miR164 after phytohormone treatment, Northern blotting", "assay_type": "in vivo, rice variety Minghui 63 (Oryza sativa L. ssp. Indica)", "conditions": "hormone sprayed onto rice plants at 4-leaf stage; for change in expression of miR164 after phytohormone treatment: leaves, Northern blotting, FIG. 3", "procedure": "The indica rice variety “Minghui 63” was used for expression profile analysis. Phytohormone treatment was carried out by evenly spraying the hormones onto the surfaces of the rice plants at the 4-leaf stage obtained from seeds which had been induced to germinate and cultivated under normal growth conditions for 18-20 days. The plants treated with kinetin and gibberellin were sampled before treatment as well as 1 min, 5 min, 10 min, 20 min, 30 min, 1 h, and 3 h after treatment. The plants treated with naphthaleneacetic acid were sampled before treatment as well as 30 min, 3 h, 9 h and 24 h after treatment. The plants treated with brassinolide were sampled before treatment as well as 15 min, 30 min, 1 h, 3 h, 6 h, 9 h and 21 h after treatment. Light treatment of etiolated shoots was performed by subjecting seeds to induction of germination and continuous cultivation in dark for 14 days followed by transferring the etiolated shoots to normal lighting conditions. Samples were taken before light treatment as well as 3 h, 6 h and 9 h after light treatment. Total RNA was extracted from leaves using Trizol reagent (Invitrogen Corp.), and then transferred to membrane as described by Xie et al. (Xie K, Wu C, and Xiong L. Genomic organization, differential expression, and interaction of SQUAMOSA promoter-binding-like transcription factors and microRNA156 in rice. Plant Physiol, 2006, 142: 280-293). Northern hybridization was performed using miR164 as the probe. […] The expression level of miR164 increased 24 hours after naphthaleneacetic acid (NAA) treatment."}}}
{"molecule": "miR164: mature microRNA (SEQ ID NO: 2) from the rice miR164 gene (SEQ ID NO: 1), overexpressed in rice under a ubiquitin promoter (UGGAGAAGCAGGGCACGUGCA; listed as Oryza sativa)", "values": [{"measurement": "root system of transgenic plants versus wild-type plants", "setting": "rice root system", "result": "obviously larger root systems"}, {"measurement": "pollen fertility of transgenic plants (iodine staining)", "setting": "rice pollens", "result": "completely sterile"}]}
{"molecule": "O=C(O)Cc1c[nH]c2ccccc12", "note": "[indoleacetic acid, Indole-3-acetic acid]", "values": [{"measurement": "seed production of transgenic plants overexpressing miR164 after external application of hormones", "setting": "[1]", "result": "produce seeds normally"}]}
{"molecule": "c1ccc(CNc2ncnc3nc[nH]c23)cc1", "note": "[6-benzylaminopurine, 6-Benzylaminopurine]", "values": [{"measurement": "seed production of transgenic plants overexpressing miR164 after external application of hormones", "setting": "[1]", "result": "produce seeds normally"}]}
{"molecule": "c1coc(CNc2ncnc3[nH]cnc23)c1", "note": "[Kinetin]", "values": [{"measurement": "seed production of transgenic plants overexpressing miR164 after external application of hormones", "setting": "[1]", "result": "produce seeds normally"}, {"measurement": "change in expression of miR164 after phytohormone treatment", "setting": "miR164", "result": "decreased gradually"}]}
{"molecule": "gibberellin", "values": [{"measurement": "change in expression of miR164 after phytohormone treatment", "setting": "miR164", "result": "increased"}, {"measurement": "time of peak miR164 expression after treatment", "setting": "miR164; then dropping to the level before treatment", "result": 10, "unit": "min"}]}
{"molecule": "CC(C)[C@H](C)[C@@H](O)[C@H](O)[C@@H](C)[C@H]1CC[C@H]2[C@@H]3COC(=O)[C@H]4C[C@H](O)[C@H](O)C[C@]4(C)[C@H]3CC[C@]12C", "note": "[brassinolide]", "values": [{"measurement": "change in expression of miR164 after phytohormone treatment", "setting": "miR164", "result": "no obvious change"}]}
